Laboratory results taken from patent US12545669B2, “Cycloalkyl and heterocycloalkyl benzisoxazole sulfonamide derivatives” (Pfizer Inc., priority 2019, dated 2026).
Where “and” joins values, the source holds several entries; their conditions need not be identical. Equal entries are not always repeated. Where two headings read alike, the source gives them in different places.

Biological target: KAT6A (Homo sapiens (Human), UniProt Q92794)
Assay: KAT assay protocol (SAMDI mass spectrometry), KAT6A
Type: biochemical
Settings: for inhibition at 1 µM: 1 μM compound; for Ki: 10 μM AcCoA, Morrison equation; for IC50: 1 μM AcCoA
Description: Biological Assay Section 1 KAT Assay Protocol:
A. Compound Preparation • 1. Prepare 10 mM stock solutions in 100% DMSO from solid material • 2. Serial dilute 10 mM, 1 mM or 0.1 mM compound stocks 3-fold in 100% DMSO for 11-point dose response
B. Reagent Preparation • 1. Prepare 1× assay buffer containing 10 mM Tris HCL pH 8.0, 2.5 mM NaCl, 0.5 mM EDTA, 0.005% BSG and 0.02% Tween-20 • 2. Dilute Histone peptide (CPC Scientific) and AcCoA (Sigma) together in assay buffer to 2×. • 3. Dilute KAT enzyme in assay buffer to 2×.
C. Enzyme Reaction • 1. Final reaction conditions for each KAT assay in a 20 ul assay reaction volume: • i. […] Add 0.5 ul of diluted compound to the assay plate (384-well V-bottom polypropylene plates) or 0.5 ul of DMSO for control wells. • 3. Add 10 ul of 2× Histone peptide/2× AcCoA mix to the assay plate. • 4. Add 10 ul of 2× enzyme to the assay plate. • 5. Stop the reaction after the indicated time with the addition of 2 ul of 5% formic acid • 6. Each reaction was analyzed using self-assembled monolayer desorption/ionization time-of-flight mass spectrometry (Mrksich, Milan (2008) Mass Spectrometry of Self-Assembled Monolayers: A New Tool for Molecular Surface Science ACS Nano 2008 2 (1), 7-18; SAMDI Tech, Inc. (Chicago, IL)). • 7. Area under the curve (AUC) for both substrate and product peaks was determined for KAT6A at M.W. 2723 [Substrate+H]^+ and 2765 [Product+H]^+ with a +/−1 Da tolerance, respectively. • 8. Percent conversion to product was calculated by: AUCProduct/(AUCSubstrate+AUCProduct).
D. Data Analysis • 1. IC50 values were determined by fitting the % conversion at each inhibitor concentration to the 4-parameter IC50 equation using Pfizer proprietary curve fitting software. • 2. Ki values were determined by fitting the % conversion at each inhibitor concentration to the Morrison equation for tightbinding competitive inhibitors using Pfizer proprietary curve fitting software. Materials
KAT enzymes were expressed using a baculovirus expression system and purified at Pfizer, La Jolla. Histone H3 (1-21) peptide ([…], SEQ ID NO:3) was purchased from CPC Scientific (Sunnyvale, CA). Acetyl coenzyme A was purchased from Sigma-Aldrich (St. Louis, MO). All other biochemical reagents were purchased from Sigma-Aldrich or ThermoFisher Scientific (Waltham, MA).
[…] 10 ul of 2× Histone peptide/AcCoA mix was added to a 384-well V-bottom polypropylene assay plate containing 0.5 ul of serially diluted test compound in 100% dimethyl sulfoxide (DMSO). To start the reaction, 10 ul of 2× enzyme solution was added to the assay plate. KAT assays were terminated after 30-60 minutes with the addition of 2 ul of 5% formic acid. KAT6A used histone H3 (1-21) peptide. The final enzyme concentration for KAT6A was 15 nM. Each reaction was analyzed using self-assembled monolayer desorption/ionization time-of-flight mass spectrometry (Mrksich, Milan (2008) Mass Spectrometry of Self-Assembled Monolayers: A New Tool for Molecular Surface Science ACS Nano 2008 2 (1), 7-18; SAMDI Tech, Inc. (Chicago, IL)).
Area under the curve (AUC) for both substrate and product peaks was determined for KAT6A at M.W. 2723 [Substrate+H]^+ and 2765 [Product+H]^+ with a +/−1 Da tolerance, respectively. Percent conversion to product was calculated by: AUCProduct/(AUCSubstrate+AUCProduct). IC50 values were determined by fitting the % conversion at each inhibitor concentration to the 4-parameter IC50 equation using Pfizer proprietary curve fitting software. Ki values were determined by fitting the % conversion at each inhibitor concentration to the Morrison equation for tightbinding competitive inhibitors using Pfizer proprietary curve fitting software.

[1] = read-out: KAT6A IC50 at 1 μM AcCoA
[2] = read-out: KAT6A Ki at 10 μM AcCoA

Chain of KAT6A (Q92794 whole entry): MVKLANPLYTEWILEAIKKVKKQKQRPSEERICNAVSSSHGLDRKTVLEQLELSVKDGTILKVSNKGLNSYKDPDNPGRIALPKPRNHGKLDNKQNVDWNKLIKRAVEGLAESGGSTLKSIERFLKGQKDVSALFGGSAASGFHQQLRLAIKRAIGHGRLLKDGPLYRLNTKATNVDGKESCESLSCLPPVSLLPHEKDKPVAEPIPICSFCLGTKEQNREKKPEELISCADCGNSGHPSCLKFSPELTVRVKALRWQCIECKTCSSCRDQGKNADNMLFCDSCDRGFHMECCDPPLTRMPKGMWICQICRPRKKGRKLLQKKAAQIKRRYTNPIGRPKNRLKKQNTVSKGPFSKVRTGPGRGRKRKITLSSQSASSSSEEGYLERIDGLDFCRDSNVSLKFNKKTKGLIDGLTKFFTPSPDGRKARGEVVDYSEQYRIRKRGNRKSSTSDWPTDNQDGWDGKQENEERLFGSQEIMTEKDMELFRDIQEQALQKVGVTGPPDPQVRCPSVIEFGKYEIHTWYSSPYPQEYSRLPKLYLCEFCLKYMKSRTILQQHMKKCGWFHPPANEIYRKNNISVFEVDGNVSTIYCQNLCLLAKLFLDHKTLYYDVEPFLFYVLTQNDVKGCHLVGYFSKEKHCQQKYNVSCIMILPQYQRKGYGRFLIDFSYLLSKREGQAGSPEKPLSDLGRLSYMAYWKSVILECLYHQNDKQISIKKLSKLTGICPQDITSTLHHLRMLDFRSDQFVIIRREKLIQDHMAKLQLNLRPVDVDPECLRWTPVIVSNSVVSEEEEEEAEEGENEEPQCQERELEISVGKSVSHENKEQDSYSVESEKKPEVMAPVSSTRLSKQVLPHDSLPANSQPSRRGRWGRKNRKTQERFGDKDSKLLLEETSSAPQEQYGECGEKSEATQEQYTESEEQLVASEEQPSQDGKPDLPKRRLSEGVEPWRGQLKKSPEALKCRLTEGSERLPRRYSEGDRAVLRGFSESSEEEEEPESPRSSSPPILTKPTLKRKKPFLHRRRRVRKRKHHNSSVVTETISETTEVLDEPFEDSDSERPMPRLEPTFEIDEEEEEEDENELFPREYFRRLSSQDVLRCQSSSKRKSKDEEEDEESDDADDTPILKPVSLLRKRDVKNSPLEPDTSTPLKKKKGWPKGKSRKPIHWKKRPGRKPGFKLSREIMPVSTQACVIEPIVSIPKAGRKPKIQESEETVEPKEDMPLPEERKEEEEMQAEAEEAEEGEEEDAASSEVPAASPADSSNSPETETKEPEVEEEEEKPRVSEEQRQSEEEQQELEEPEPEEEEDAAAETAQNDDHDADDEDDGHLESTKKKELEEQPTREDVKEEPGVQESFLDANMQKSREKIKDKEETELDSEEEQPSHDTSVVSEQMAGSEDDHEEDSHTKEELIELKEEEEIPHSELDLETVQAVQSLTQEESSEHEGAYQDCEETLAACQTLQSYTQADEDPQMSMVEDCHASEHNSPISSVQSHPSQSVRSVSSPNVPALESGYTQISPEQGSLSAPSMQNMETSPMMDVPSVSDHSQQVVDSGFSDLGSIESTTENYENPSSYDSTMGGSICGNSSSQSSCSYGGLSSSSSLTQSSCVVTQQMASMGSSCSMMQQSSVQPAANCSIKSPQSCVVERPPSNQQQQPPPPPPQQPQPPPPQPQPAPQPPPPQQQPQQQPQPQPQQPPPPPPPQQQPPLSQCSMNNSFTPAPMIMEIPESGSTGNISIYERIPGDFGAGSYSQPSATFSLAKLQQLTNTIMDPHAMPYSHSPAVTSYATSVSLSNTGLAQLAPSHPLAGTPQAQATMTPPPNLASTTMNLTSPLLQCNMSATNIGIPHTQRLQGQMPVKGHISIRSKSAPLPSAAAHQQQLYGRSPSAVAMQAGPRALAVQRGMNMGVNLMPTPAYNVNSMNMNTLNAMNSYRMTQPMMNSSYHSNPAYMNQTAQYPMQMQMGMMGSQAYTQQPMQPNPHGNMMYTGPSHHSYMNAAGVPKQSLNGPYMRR

COc1cc(Cn2cccn2)cc2onc(NS(=O)(=O)CC3(C)CC3)c12 [Example 39]
inhibition at 1 µM: 52%

COc1cc(Cn2cccn2)cc2onc(NS(=O)(=O)CCCC3CCCCC3)c12 [Example 37]
inhibition at 1 µM: 98%

COc1cc(Cn2cccn2)cc2onc(NS(=O)(=O)CC3CCCC4(CCC4)O3)c12 (stereo not drawn) [Example 120]
inhibition at 1 µM: 35%

COc1cc(Cn2cccn2)cc2onc(NS(=O)(=O)CCC(C)(C)C3CC3)c12 [Example 32]
inhibition at 1 µM: 108% | Ki (KAT6A Ki at 10 μM AcCoA): 4.88 nM

COc1cc(Cn2cccn2)cc2onc(NS(=O)(=O)CC3CC34CC4)c12 (stereo not drawn) [Example 57]
inhibition at 1 µM: 104% | Ki (KAT6A Ki at 10 μM AcCoA): 13.9 nM

COc1cc(Cn2cccn2)cc2onc(NS(=O)(=O)C3CCOC(C)C3)c12 (stereo not drawn) [Example 89]
inhibition at 1 µM: 84% | Ki (KAT6A Ki at 10 μM AcCoA): 87.3 nM

COc1cc(Cn2cccn2)cc2onc(NS(=O)(=O)C3CCCCCC3)c12 [Example 59]
inhibition at 1 µM: 48%

COc1cc(Cn2cccn2)cc2onc(NS(=O)(=O)CCN3CCOCC3)c12 [Example 130]
IC50 (KAT6A IC50 at 1 μM AcCoA): 187 nM

COc1cc(Cn2cccn2)cc2onc(NS(=O)(=O)C3CC4(CCC4)C3)c12 [Example 33]
inhibition at 1 µM: 65%

COc1cc(Cn2cccn2)cc2onc(NS(=O)(=O)CCC3CCCCC3)c12 [Example 31]
inhibition at 1 µM: 93% | Ki (KAT6A Ki at 10 μM AcCoA): 4.94 nM

COCC1(S(=O)(=O)Nc2noc3cc(Cn4cccn4)cc(OC)c23)CC1 [Example 47]
inhibition at 1 µM: 68%

COc1cc(Cn2cccn2)cc2onc(NS(=O)(=O)CCC3CCCO3)c12 (stereo not drawn) [Example 102]
inhibition at 1 µM: 70% | Ki (KAT6A Ki at 10 μM AcCoA): 116 nM

COc1cc(Cn2cccn2)cc2onc(NS(=O)(=O)C3CCN(C(C)=O)CC3)c12 [Example 94]
inhibition at 1 µM: 76%

COc1cc(Cn2cccn2)cc2onc(NS(=O)(=O)CCCC3CCOCC3)c12 [Example 104]
inhibition at 1 µM: 80%

COc1cc(Cn2cccn2)cc2onc(NS(=O)(=O)C3CCC(OC)CC3)c12 (stereo not drawn) [Example 44]
inhibition at 1 µM: 89%

COc1cc(Cn2cccn2)cc2onc(NS(=O)(=O)[C@H]3CCCN(C(=O)OCc4ccccc4)C3)c12 [Example 88]
Ki (KAT6A Ki at 10 μM AcCoA): 99.4 nM

COc1cc(Cn2cccn2)cc2onc(NS(=O)(=O)CC34CCC(CC3)C4)c12 [Example 67]
inhibition at 1 µM: 104%

COc1cc(Cn2cccn2)cc2onc(NS(=O)(=O)CC34CCCN(CC3)C4)c12 (stereo not drawn) [Example 105]
inhibition at 1 µM: 101%

COc1cc(Cn2cccn2)cc2onc(NS(=O)(=O)CC3CCC3(F)F)c12 (stereo not drawn) [Example 79]
inhibition at 1 µM: 106%

COc1cc(Cn2cccn2)cc2onc(NS(=O)(=O)CC3CCC(F)(F)CC3)c12 [Example 10]
inhibition at 1 µM: 48% | Ki (KAT6A Ki at 10 μM AcCoA): 89.4 nM

COc1cc(Cn2cccn2)cc2onc(NS(=O)(=O)CC3(C)CCOCC3)c12 [Example 118]
inhibition at 1 µM: 56%

COc1cc(Cn2cccn2)cc2onc(NS(=O)(=O)CC(C)C)c12 [Example 128]
IC50 [1]: 128 nM

COc1cc(Cn2cccn2)cc2onc(NS(=O)(=O)C3CCC(C)C3)c12 (stereo not drawn) [Example 21]
inhibition at 1 µM: 84% | Ki (KAT6A Ki at 10 μM AcCoA): 34.5 nM

COc1cc(Cn2cccn2)cc2onc(NS(=O)(=O)N(C)C3CCCCC3)c12 [Example 132]
IC50 (KAT6A IC50 at 1 μM AcCoA): 9 nM | Ki (KAT6A Ki at 10 μM AcCoA): 4 nM

COc1cc(Cn2cccn2)cc2onc(NS(=O)(=O)CC3CC(OC)C3)c12 (stereo not drawn) [Example 69]
inhibition at 1 µM: 78%

COc1cc(Cn2cccn2)cc2onc(NS(=O)(=O)[C@H]3C[C@H]4CC[C@H]3C4)c12 [Example 25]
inhibition at 1 µM: 87% | Ki (KAT6A Ki at 10 μM AcCoA): 16.5 nM

COc1cc(Cn2cccn2)cc2onc(NS(=O)(=O)CCCC3CCOC3)c12 (stereo not drawn) [Example 106]
inhibition at 1 µM: 48%

COc1cc(Cn2cccn2)cc2onc(NS(=O)(=O)CC3CC(F)(F)C3)c12 [Example 36]
inhibition at 1 µM: 51%

CC[C@@H]1C[C@@H]1S(=O)(=O)Nc1noc2cc(Cn3cccn3)cc(OC)c12 [Example 26]
inhibition at 1 µM: 71%

COc1cc(Cn2cccn2)cc2onc(NS(=O)(=O)CCC3(C)CC3)c12 [Example 53]
inhibition at 1 µM: 97%

COc1cc(Cn2cccn2)cc2onc(NS(=O)(=O)NC3CCCCC3)c12 [Example 131]
IC50 [1]: 6 nM | Ki [2]: 3 nM

COc1cc(Cn2cccn2)cc2onc(NS(=O)(=O)CC3CCCCO3)c12 (stereo not drawn) [Example 101]
inhibition at 1 µM: 65%

COc1cc(Cn2cccn2)cc2onc(NS(=O)(=O)CC3CCC(C)O3)c12 (stereo not drawn) [Example 100]
inhibition at 1 µM: 69%

COc1cc(Cn2cccn2)cc2onc(NS(=O)(=O)CC3CC3(F)F)c12 (stereo not drawn) [Example 66]
inhibition at 1 µM: 88%

COc1cc(Cn2cccn2)cc2onc(NS(=O)(=O)CC3CCCC3(F)F)c12 (stereo not drawn) [Example 77]
Ki (KAT6A Ki at 10 μM AcCoA): 15.5 nM

COc1cc(Cn2cccn2)cc2onc(NS(=O)(=O)C3CCC(F)(F)CC3)c12 [Example 51]
inhibition at 1 µM: 65%

COc1cc(Cn2cccn2)cc2onc(NS(=O)(=O)CC3CCCC(F)C3)c12 (stereo not drawn) [Example 54]
inhibition at 1 µM: 82%

COc1cc(Cn2cccn2)cc2onc(NS(=O)(=O)CC3(C#N)CCCCC3)c12 [Example 40]
inhibition at 1 µM: 58%

COc1cc(Cn2cccn2)cc2onc(NS(=O)(=O)C[C@H]3C[C@@H](C)C3)c12 [Example 133]
IC50 (KAT6A IC50 at 1 μM AcCoA): 40 nM

COc1cc(Cn2cccn2)cc2onc(NS(=O)(=O)C3CCCC3)c12 [Example 20]
Ki [2]: 36.5 nM

COc1cc(Cn2cccn2)cc2onc(NS(=O)(=O)CC3C(C)(C)C3(F)F)c12 (stereo not drawn) [Example 75]
inhibition at 1 µM: 91%

COc1cc(Cn2cccn2)cc2onc(NS(=O)(=O)C3COC(C)(C)C3)c12 (stereo not drawn) [Example 90]
inhibition at 1 µM: 83% | Ki (KAT6A Ki at 10 μM AcCoA): 66.2 nM and 58.1 nM

COc1cc(Cn2cccn2)cc2onc(NS(=O)(=O)CC3CCCCC3(C)C)c12 (stereo not drawn) [Example 63]
inhibition at 1 µM: 48%

COc1cc(Cn2cccn2)cc2onc(NS(=O)(=O)CC3(OC)CCCCC3)c12 [Example 52]
inhibition at 1 µM: 66% | Ki (KAT6A Ki at 10 μM AcCoA): 127 nM

COc1cc(Cn2cccn2)cc2onc(NS(=O)(=O)C3CC(C)C3)c12 (stereo not drawn) [Example 73]
inhibition at 1 µM: 96%

COc1cc(Cn2cccn2)cc2onc(NS(=O)(=O)C3CCCOC3)c12 (stereo not drawn) [Example 87]
inhibition at 1 µM: 73% | Ki (KAT6A Ki at 10 μM AcCoA): 100 nM

COc1cc(Cn2cccn2)cc2onc(NS(=O)(=O)[C@H]3C[C@H]3c3ccccc3)c12 [Example 28]
Ki [2]: 14.2 nM

COc1cc(Cn2cccn2)cc2onc(NS(=O)(=O)[C@H]3CCC[C@H]3OC)c12 [Example 18]
inhibition at 1 µM: 83% | Ki [2]: 71.9 nM

COc1cc(Cn2cccn2)cc2onc(NS(=O)(=O)CCC3CCCCO3)c12 (stereo not drawn) [Example 108]
inhibition at 1 µM: 67%

COc1cc(Cn2cccn2)cc2onc(NS(=O)(=O)CC3CN(C)CCO3)c12 (stereo not drawn) [Example 119]
inhibition at 1 µM: 58%

COc1cc(Cn2cccn2)cc2onc(NS(=O)(=O)CC3CC(C)C3)c12 (stereo not drawn) [Example 60]
inhibition at 1 µM: 42%

COc1cc(Cn2cccn2)cc2onc(NS(=O)(=O)CCC3CCOCC3)c12 [Example 117]
inhibition at 1 µM: 91%

COc1cc(Cn2cccn2)cc2onc(NS(=O)(=O)CC(OC)C3CCCCC3)c12 (stereo not drawn) [Example 46]
inhibition at 1 µM: 103%

COc1cc(Cn2cccn2)cc2onc(NS(=O)(=O)CC3(C#N)CC3)c12 [Example 35]
inhibition at 1 µM: 40%

COc1cc(Cn2cccn2)cc2onc(NS(=O)(=O)CCC3CC3)c12 [Example 23]
inhibition at 1 µM: 92% | Ki (KAT6A Ki at 10 μM AcCoA): 31.6 nM

COc1cc(Cn2cccn2)cc2onc(NS(=O)(=O)[C@H]3CCCC[C@H]3OC)c12 [Example 83]
inhibition at 1 µM: 85%

COCC1(S(=O)(=O)Nc2noc3cc(Cn4cccn4)cc(OC)c23)CCC1 [Example 74]
inhibition at 1 µM: 92%
